Results as given in ChEMBL document CHEMBL1201862, “PubChem BioAssay data set” (2004).
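Method: 48-hour compound exposure of cells in 96-well plates, five concentrations, linear interpolation of endpoints. The concentration for 50% growth inhibition is given as GI50.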 Calls of active or inactive are those of the source. No stated cut-off is given here; in the data, active = GI50 up to about 1.1 µM and inactive = higher.

How the values were obtained:
Assay in all cases: inhibition of tumour cell growth, NCI panel, 48 h
MOLT-4 = system: MOLT-4
HCC 2998 = system: HCC 2998
A549 = system: A549
RXF 393 = system: RXF 393
K562 = system: K562
LOX IMVI = system: LOX IMVI
M14 = system: M14
NCI-H23 = system: NCI-H23
SK-OV-3 = system: SK-OV-3
SNB-75 = system: SNB-75
EKVX = system: EKVX
CAKI-1 = system: CAKI-1
SF-295 = system: SF-295
RPMI-8226 = system: RPMI-8226
HCT-116 = system: HCT-116
OVCAR-3 = system: OVCAR-3
HOP-62 = system: HOP-62
IGROV-1 = system: IGROV-1
SN12C = system: SN12C
SNB-19 = system: SNB-19

Structure (SMILES)	GI50 (MOLT-4)	GI50 (HCC 2998)	GI50 (A549)	GI50 (RXF 393)	GI50 (K562)	GI50 (LOX IMVI)	GI50 (M14)	GI50 (NCI-H23)	GI50 (SK-OV-3)	GI50 (SNB-75)	GI50 (EKVX)	GI50 (CAKI-1)	GI50 (SF-295)	GI50 (RPMI-8226)	GI50 (HCT-116)	GI50 (OVCAR-3)	GI50 (HOP-62)	GI50 (IGROV-1)	GI50 (SN12C)	GI50 (SNB-19)
COc1cc(/C=C2\CC3C4CC=C5C[C@@H](O)CC[C@]5(C)C4CC[C@]3(C)\C2=N\O)cc(OC)c1OC (some centres undefined)	29.2 µM (inactive)	6.34 µM (inactive)	4.65 µM (inactive)	3.61 µM (inactive)	34.4 µM (inactive)	5.48 µM (inactive)	10.5 µM (inactive)	7.16 µM (inactive)	23.7 µM (inactive)	9.2 µM (inactive)	6.04 µM (inactive)	3.94 µM (inactive)	3.02 µM (inactive)	10.4 µM (inactive)	4.05 µM (inactive)	7.29 µM (inactive)	19.6 µM (inactive)	13 µM (inactive)	7.13 µM (inactive)	21.3 µM (inactive)
CCC(/C(=N/NC(=O)C[N+](C)(C)C)c1ccccc1)C1OC(=O)c2ccccc21 (centres undefined)	> 100 µM (inactive)	> 100 µM (inactive)	> 100 µM (inactive)	> 100 µM (inactive)	> 100 µM (inactive)	> 100 µM (inactive)	> 100 µM (inactive)	> 100 µM (inactive)	> 100 µM (inactive)	> 100 µM (inactive)		> 100 µM (inactive)	> 100 µM (inactive)	> 100 µM (inactive)	> 100 µM (inactive)	> 100 µM (inactive)	> 100 µM (inactive)	> 100 µM (inactive)	> 100 µM (inactive)	> 100 µM (inactive)
O=C1NC(c2ccccc2Cl)Nc2ccccc21 (centres undefined)	8.77 µM (inactive)	11.3 µM (inactive)	32.5 µM (inactive)	15.3 µM (inactive)	3.77 µM (inactive)	12.5 µM (inactive)	10.5 µM (inactive)	34.2 µM (inactive)	31 µM (inactive)	13.8 µM (inactive)	27.7 µM (inactive)	5.71 µM (inactive)	13.9 µM (inactive)	7.73 µM (inactive)	7.24 µM (inactive)	7.38 µM (inactive)	35.4 µM (inactive)	22.5 µM (inactive)	23.3 µM (inactive)	15.1 µM (inactive)
COc1cc(C(=O)NC(CCN)(c2ccccc2)c2ccccc2)cc(OC)c1OC	10.8 µM (inactive)	13.4 µM (inactive)	21.3 µM (inactive)	10.4 µM (inactive)	12.9 µM (inactive)	16.7 µM (inactive)	13.9 µM (inactive)	26.3 µM (inactive)	> 31.6 µM (inactive)	17 µM (inactive)	> 31.6 µM (inactive)	35.4 µM (inactive)	21.6 µM (inactive)	> 10 µM (inactive)	> 42.4 µM (inactive)	56.8 µM (inactive)	> 31.6 µM (inactive)	25.1 µM (inactive)	21.7 µM (inactive)	> 58.5 µM (inactive)
CCc1n[nH]c(=O)n1N1C(=O)C2CC=CCC2C1=O (centres undefined)	> 100 µM (inactive)	> 100 µM (inactive)	> 100 µM (inactive)	> 100 µM (inactive)	> 100 µM (inactive)	> 100 µM (inactive)	> 100 µM (inactive)	> 100 µM (inactive)	> 100 µM (inactive)	39.1 µM (inactive)	> 100 µM (inactive)	> 100 µM (inactive)	> 100 µM (inactive)	> 100 µM (inactive)	> 100 µM (inactive)	> 100 µM (inactive)	> 100 µM (inactive)	> 100 µM (inactive)	> 100 µM (inactive)	> 100 µM (inactive)
CCCCCCCCCCNC(=O)CCC(NC(=O)c1ccc(N(C)Cc2cnc3nc(N)nc(N)c3n2)cc1)C(=O)NCCCCCCCCCC (centres undefined)	2.99 µM (inactive)	5.75 µM (inactive)	28.6 µM (inactive)	5.53 µM (inactive)	0.698 µM (active)	2.36 µM (inactive)	8.97 µM (inactive)	14.7 µM (inactive)	27.8 µM (inactive)	11.9 µM (inactive)	12.3 µM (inactive)	> 100 µM (inactive)	43.7 µM (inactive)	10 µM (inactive)	3.71 µM (inactive)	10 µM (inactive)	31.8 µM (inactive)	6.04 µM (inactive)	8.07 µM (inactive)	9.46 µM (inactive)
Cc1c(C(=O)/C=C/c2ccc(Cl)cc2)[n+]([O-])c2ccccc2[n+]1[O-]	13.8 µM (inactive)	11.8 µM (inactive)	12.4 µM (inactive)	4.18 µM (inactive)	4.6 µM (inactive)	7.28 µM (inactive)	15.6 µM (inactive)	10.4 µM (inactive)	21.2 µM (inactive)	15.3 µM (inactive)	15.6 µM (inactive)	9.2 µM (inactive)	12.2 µM (inactive)	11.1 µM (inactive)	5.93 µM (inactive)	12.5 µM (inactive)	26.5 µM (inactive)	11.8 µM (inactive)	7.1 µM (inactive)	14.4 µM (inactive)
